Among the data in PubChem BioAssay (NCI) are GI50 and TGI values, retold here.

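How tested: cells in 96-well plates exposed to compound for 48 hours at five concentrations. GI50 is the concentration that inhibits growth by half. The concentration for full growth arrest is given as TGI.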

Test systems include CAKI-1 renal; KM12 colon; SNB-75 CNS; UO-31 renal; BT-549 breast; HCT-15 colon; IGROV1 ovarian; MDA-MB-231 breast; NCI-H23 lung; OVCAR-4 ovarian; SK-MEL-5 melanoma.
Experiment in all cases: growth of human tumour cells (NCI), 48 h

As to `C=C(C)[C@@H]1CC[C@]2(C(=O)NC3CCCCC3)CC[C@]3(C)[C@H](CC[C@@H]4[C@@]5(C)CCCNC(C)(C)[C@@H]5CC[C@]43C)[C@@H]12`, the GI50 is 1560 nM in the test with CAKI-1 renal, 1.92 µM in the test on KM12 colon, 1.48 µM in the test with SNB-75 CNS and 1420 nM with UO-31 renal. Besides, the TGI came to 2.93 µM in the test with CAKI-1 renal, 3.64 µM with KM12 colon, 3.05 µM with SNB-75 CNS and 2.73 µM in the test with UO-31 renal.
Turning to `Cn1c(=O)c(-c2ccccc2)c(N=[N+]=[N-])c2ccccc21`, the TGI in the test with BT-549 breast, in the test with CAKI-1 renal, with HCT-15 colon, in the test on IGROV1 ovarian, with KM12 colon and in the test on MDA-MB-231 breast was more than 100 µM each time. For the same molecule, the TGI with NCI-H23 lung, in the test with OVCAR-4 ovarian, in the test with SK-MEL-5 melanoma, with SNB-75 CNS and with UO-31 renal was more than 100 µM each time.
`CC1(C)N=C(N)N=C(N)N1c1ccc(CCc2ccccc2)cc1`: the TGI in the test on CAKI-1 renal was more than 100 µM; in the test on HCT-15 colon, more than 100 µM; with IGROV1 ovarian it was 5.28 µM; with KM12 colon, more than 43.1 µM; with NCI-H23 lung, more than 100 µM; in the test on OVCAR-4 ovarian, more than 100 µM. Further, the TGI in the test on SK-MEL-5 melanoma is 9.63 µM; in the test with SNB-75 CNS, more than 94.3 µM; with UO-31 renal, more than 100 µM.
Regarding `CCC(/C=C/C1OC(=O)C=CC1C)=C\C(C)C/C=C/C(C)=C/C(C)C(=O)C(C)C(O)C(C)C/C(C)=C/C(=O)O` (stereo not given), the GI50 is less than 0.001 nM in the test with CAKI-1 renal; 1.72 pM in the test with HCT-15 colon; 7.48 pM in the test on IGROV1 ovarian; 6.52 pM in the test with NCI-H23 lung; less than 1 pM with OVCAR-4 ovarian; 0.408 µM in the test on SK-MEL-5 melanoma. Also, the GI50 in the test with UO-31 renal is 0.0312 nM. Further, the TGI in the test with IGROV1 ovarian turned out to be 16 µM; in the test with NCI-H23 lung, 3.87 µM; with SNB-75 CNS, 7.17 µM.
With `COc1ccc2cc(/C=N/NC(=O)Nc3ccccc3)ccc2c1`, the TGI in the test on BT-549 breast, in the test on CAKI-1 renal, in the test with HCT-15 colon, in the test on IGROV1 ovarian, in the test with KM12 colon and with MDA-MB-231 breast was more than 100 µM each time. Moreover, the TGI in the test with NCI-H23 lung, in the test with OVCAR-4 ovarian, with SK-MEL-5 melanoma, in the test on SNB-75 CNS and in the test with UO-31 renal was more than 100 µM throughout.
In the case of `C[C@H](CCC(=O)O)[C@H]1CC[C@H]2[C@@H]3CC[C@@H]4C[C@H](O)CC[C@]4(C)[C@H]3C[C@H](O)[C@]12C`, the TGI is more than 100 µM with BT-549 breast; more than 100 µM in the test with CAKI-1 renal; more than 100 µM in the test with HCT-15 colon; 86.7 µM with IGROV1 ovarian; more than 100 µM with KM12 colon; more than 100 µM in the test on MDA-MB-231 breast. Moreover, the TGI in the test on NCI-H23 lung, in the test on OVCAR-4 ovarian, in the test with SK-MEL-5 melanoma, in the test on SNB-75 CNS and in the test with UO-31 renal was more than 100 µM in each case.
Take `CC1(CCOCc2ccccc2)NC(=O)NC1=O` (stereo not given): the TGI in the test on BT-549 breast, in the test on CAKI-1 renal, in the test on HCT-15 colon, in the test with IGROV1 ovarian, in the test with KM12 colon and in the test on MDA-MB-231 breast was more than 100 µM each time. In addition, the TGI with NCI-H23 lung, in the test with OVCAR-4 ovarian, with SK-MEL-5 melanoma and in the test with UO-31 renal was more than 100 µM each time.
As for `Cc1[nH]nc(C(F)(F)F)c1N=NN1CCOCC1`, the TGI was 25.1 µM with BT-549 breast; 4.67 µM in the test with CAKI-1 renal; 25.8 µM in the test on HCT-15 colon; 22.6 µM in the test on IGROV1 ovarian; 21.9 µM in the test on KM12 colon; 27.1 µM in the test on MDA-MB-231 breast. The TGI worked out at 15.5 µM in the test with NCI-H23 lung; 15.1 µM in the test with OVCAR-4 ovarian; 12.8 µM in the test with SK-MEL-5 melanoma; 26.7 µM in the test on SNB-75 CNS; 7.04 µM in the test on UO-31 renal.
For the molecule `c1ccc(CCNc2ccccn2)nc1`, the TGI in the test with BT-549 breast, in the test on CAKI-1 renal, in the test with HCT-15 colon, with IGROV1 ovarian, with KM12 colon and in the test on MDA-MB-231 breast was more than 100 µM throughout. In addition, the TGI in the test with NCI-H23 lung, with OVCAR-4 ovarian, with SK-MEL-5 melanoma and with UO-31 renal was more than 100 µM in each case.
Consider `CC(OC(C)(C)C)[C@H](NC(=O)OCC(Cl)(Cl)Cl)C(=O)O` (stereo not given in full), for which the TGI in the test on CAKI-1 renal, in the test with HCT-15 colon, with IGROV1 ovarian, in the test on KM12 colon, in the test with NCI-H23 lung and in the test on OVCAR-4 ovarian was more than 100 µM throughout. The TGI with SK-MEL-5 melanoma, in the test on SNB-75 CNS and with UO-31 renal was more than 100 µM each time.
